Assay: xn = mol fraction of the nth substance listed
Details: Gas, Burnett expansion method

FC(C(F)(F)F)C(F)(F)F [1,1,1,2,3,3,3-heptafluoropropane] + FCF
Details | mass density [kg/m3]
310 K, 149.52 kPa, x2 = 0.2648 | 8.291
310 K, 189.1 kPa, x2 = 0.5155 | 8.255
310 K, 204.07 kPa, x2 = 0.2648 | 11.439
310 K, 207.98 kPa, x2 = 0.7809 | 6.449
310 K, 258.01 kPa, x2 = 0.5155 | 11.389
310 K, 277.27 kPa, x2 = 0.2648 | 15.782
310 K, 284.06 kPa, x2 = 0.7809 | 8.897
310 K, 350.46 kPa, x2 = 0.5155 | 15.712
310 K, 374.4 kPa, x2 = 0.2648 | 21.774
310 K, 386.48 kPa, x2 = 0.7809 | 12.274
310 K, 473.07 kPa, x2 = 0.5155 | 21.676
310 K, 501.26 kPa, x2 = 0.2648 | 30.041
310 K, 523.12 kPa, x2 = 0.7809 | 16.934
310 K, 633.01 kPa, x2 = 0.5155 | 29.904
310 K, 662.59 kPa, x2 = 0.2648 | 41.446
310 K, 702.73 kPa, x2 = 0.7809 | 23.363
310 K, 836.5 kPa, x2 = 0.5155 | 41.255
310 K, 932.7 kPa, x2 = 0.7809 | 32.232
310 K, 1221.3 kPa, x2 = 0.7809 | 44.426
310 K, 1562.6 kPa, x2 = 0.7809 | 61.291
320 K, 154.66 kPa, x2 = 0.2648 | 8.285
320 K, 195.61 kPa, x2 = 0.5155 | 8.251
320 K, 211.27 kPa, x2 = 0.2648 | 11.431
320 K, 215.08 kPa, x2 = 0.7809 | 6.445
320 K, 267.14 kPa, x2 = 0.5155 | 11.383
320 K, 287.44 kPa, x2 = 0.2648 | 15.771
320 K, 294.06 kPa, x2 = 0.7809 | 8.892
320 K, 363.38 kPa, x2 = 0.5155 | 15.704
320 K, 388.88 kPa, x2 = 0.2648 | 21.758
320 K, 400.53 kPa, x2 = 0.7809 | 12.268
320 K, 491.5 kPa, x2 = 0.5155 | 21.665
320 K, 522.08 kPa, x2 = 0.2648 | 30.019
320 K, 543.05 kPa, x2 = 0.7809 | 16.926
320 K, 659.5 kPa, x2 = 0.5155 | 29.889
320 K, 693.04 kPa, x2 = 0.2648 | 41.416
320 K, 731.28 kPa, x2 = 0.7809 | 23.351
320 K, 875.19 kPa, x2 = 0.5155 | 41.235
320 K, 904.5 kPa, x2 = 0.2648 | 57.14
320 K, 974.36 kPa, x2 = 0.7809 | 32.216
320 K, 1142.5 kPa, x2 = 0.5155 | 56.888
320 K, 1282.2 kPa, x2 = 0.7809 | 44.404
320 K, 1653.9 kPa, x2 = 0.7809 | 61.261
320 K, 2072.7 kPa, x2 = 0.7809 | 84.517
330 K, 159.77 kPa, x2 = 0.2648 | 8.281
330 K, 202.1 kPa, x2 = 0.5155 | 8.247
330 K, 218.42 kPa, x2 = 0.2648 | 11.425
330 K, 222.17 kPa, x2 = 0.7809 | 6.442
330 K, 276.22 kPa, x2 = 0.5155 | 11.377
330 K, 297.52 kPa, x2 = 0.2648 | 15.763
330 K, 303.95 kPa, x2 = 0.7809 | 8.888
330 K, 376.17 kPa, x2 = 0.5155 | 15.696
330 K, 403.18 kPa, x2 = 0.2648 | 21.748
330 K, 414.44 kPa, x2 = 0.7809 | 12.262
330 K, 509.64 kPa, x2 = 0.5155 | 21.654
330 K, 542.59 kPa, x2 = 0.2648 | 30.004
330 K, 562.74 kPa, x2 = 0.7809 | 16.917
330 K, 685.57 kPa, x2 = 0.5155 | 29.874
330 K, 722.83 kPa, x2 = 0.2648 | 41.396
330 K, 759.44 kPa, x2 = 0.7809 | 23.34
330 K, 913.06 kPa, x2 = 0.5155 | 41.214
330 K, 948.75 kPa, x2 = 0.2648 | 57.112
330 K, 1015.2 kPa, x2 = 0.7809 | 32.2
330 K, 1198.4 kPa, x2 = 0.5155 | 56.859
330 K, 1218.7 kPa, x2 = 0.2648 | 78.795
330 K, 1341.7 kPa, x2 = 0.7809 | 44.382
330 K, 1540 kPa, x2 = 0.5155 | 78.443
330 K, 1742.4 kPa, x2 = 0.7809 | 61.23
330 K, 2206.8 kPa, x2 = 0.7809 | 84.475
340 K, 164.86 kPa, x2 = 0.2648 | 8.277
340 K, 208.54 kPa, x2 = 0.5155 | 8.243
340 K, 225.54 kPa, x2 = 0.2648 | 11.42
340 K, 229.21 kPa, x2 = 0.7809 | 6.439
340 K, 285.24 kPa, x2 = 0.5155 | 11.372
340 K, 307.52 kPa, x2 = 0.2648 | 15.755
340 K, 313.78 kPa, x2 = 0.7809 | 8.884
340 K, 388.85 kPa, x2 = 0.5155 | 15.688
340 K, 417.35 kPa, x2 = 0.2648 | 21.737
340 K, 428.24 kPa, x2 = 0.7809 | 12.256
340 K, 527.64 kPa, x2 = 0.5155 | 21.643
340 K, 562.85 kPa, x2 = 0.2648 | 29.989
340 K, 582.27 kPa, x2 = 0.7809 | 16.909
340 K, 711.31 kPa, x2 = 0.5155 | 29.859
340 K, 752.13 kPa, x2 = 0.2648 | 41.375
340 K, 787.28 kPa, x2 = 0.7809 | 23.328
340 K, 950.24 kPa, x2 = 0.5155 | 41.194
340 K, 991.76 kPa, x2 = 0.2648 | 57.084
340 K, 1055.4 kPa, x2 = 0.7809 | 32.184
340 K, 1252.9 kPa, x2 = 0.5155 | 56.831
340 K, 1283.1 kPa, x2 = 0.2648 | 78.756
340 K, 1399.9 kPa, x2 = 0.7809 | 44.36
340 K, 1614 kPa, x2 = 0.2648 | 108.656
340 K, 1621.4 kPa, x2 = 0.5155 | 78.404
340 K, 1828.5 kPa, x2 = 0.7809 | 61.2
340 K, 2042.8 kPa, x2 = 0.5155 | 108.166
340 K, 2336.2 kPa, x2 = 0.7809 | 84.433
350 K, 169.93 kPa, x2 = 0.2648 | 8.273
350 K, 214.96 kPa, x2 = 0.5155 | 8.239
350 K, 232.62 kPa, x2 = 0.2648 | 11.414
350 K, 236.22 kPa, x2 = 0.7809 | 6.436
350 K, 294.24 kPa, x2 = 0.5155 | 11.366
350 K, 317.47 kPa, x2 = 0.2648 | 15.747
350 K, 323.59 kPa, x2 = 0.7809 | 8.879
350 K, 401.46 kPa, x2 = 0.5155 | 15.68
350 K, 431.39 kPa, x2 = 0.2648 | 21.726
350 K, 441.97 kPa, x2 = 0.7809 | 12.25
350 K, 545.49 kPa, x2 = 0.5155 | 21.633
350 K, 582.86 kPa, x2 = 0.2648 | 29.974
350 K, 601.65 kPa, x2 = 0.7809 | 16.901
350 K, 736.76 kPa, x2 = 0.5155 | 29.844
350 K, 780.99 kPa, x2 = 0.2648 | 41.355
350 K, 814.82 kPa, x2 = 0.7809 | 23.317
350 K, 986.94 kPa, x2 = 0.5155 | 41.173
350 K, 1033.9 kPa, x2 = 0.2648 | 57.055
350 K, 1095 kPa, x2 = 0.7809 | 32.168
350 K, 1306.5 kPa, x2 = 0.5155 | 56.803
350 K, 1345.8 kPa, x2 = 0.2648 | 78.717
350 K, 1457.2 kPa, x2 = 0.7809 | 44.338
350 K, 1700.8 kPa, x2 = 0.5155 | 78.365
350 K, 1709.1 kPa, x2 = 0.2648 | 108.602
350 K, 1912.8 kPa, x2 = 0.7809 | 61.169
350 K, 2092.9 kPa, x2 = 0.2648 | 149.834
350 K, 2162.7 kPa, x2 = 0.5155 | 108.113
350 K, 2462 kPa, x2 = 0.7809 | 84.391
350 K, 2654.5 kPa, x2 = 0.5155 | 149.152
360 K, 174.96 kPa, x2 = 0.2648 | 8.269

— the NIST ThermoML archive (doi:10.1021/je7000667)
